Laboratory results: a melting point compilation (Tetko et al.; mined from patent text by program, amines drawn as free bases though some values may be those of a salt)

Compound	melting point [°C]
CCCCOC(=O)c1cc(=O)c2c3c(cc(Cl)c2o1)-c1ccc(S(=O)(=O)O)cc1C(C)(C)O3	241 to 243
CCNc1nc(NC(C)C)cc(NS(=O)(=O)c2ccc(N)cc2)n1	258 to 259
CCCN([C@H]1COc2c(F)ccc(C(N)=O)c2C1)C(C)(C)C	70 to 75
N#CSCCNc1ccc(C(F)(F)F)cc1[N+](=O)[O-]	115 to 117
Cc1ccc(-c2nn(C(C)(C)C)c(N)c2C#N)cc1	174 to 176
O=C(NCCN1CCCCC1)c1nc(NCC(c2ccccc2)c2ccccc2)c2ncn([C@@H]3O[C@H](CO)[C@@H](O)[C@H]3O)c2n1	182
Cn1c(=O)cc(-c2nc(-c3ccccc3)cs2)c2cc(C(=O)c3ccc(Cl)cc3)ccc21	216
CCCN(CC(C)n1c(CCOC)nc2c(N)nc3ccccc3c21)C(N)=S (centres undefined)	172 to 173
OC(CSc1ccnc2ccccc12)c1ccc2ccccc2c1 (centres undefined)	170 to 172
CC(C)n1nc(-c2sc(NC(=O)c3ccc(CN4CCCCC4)cc3)nc2-c2ccccc2)ccc1=O	136 to 138
CCCOc1nsnc1S(C)(=O)=O	30 to 31
CN(c1ccccc1)c1ncccc1NC(=O)c1ccccc1Cl	145 to 146
C#Cc1ccc(N)nc1	143
CN(Cc1cccc2c1C(=O)N(C1CCC(=O)NC1=O)C2=O)C(=O)c1ccco1 (centres undefined)	184 to 186
C(=Cc1ccc(-c2cc3cc(-c4ccccc4)ccc3o2)cc1)c1ccc(-c2ccccc2)cc1	356 to 358
Cc1c(C)c2c(c(C)c1N)CC(C)(CNCCN1CCCCC1)O2 (centres undefined)	102 to 104
COc1cc2c(cc1O)CCN(C(=O)c1cc(OC)c(OC)c(OC)c1)C2	172 to 173
COc1ccc(CN2CCC(N3Cc4cc(Cl)c(S(N)(=O)=O)cc4C3=O)CC2)cc1	207 to 210
Cn1nc(-c2ccc(Cl)cc2)cc1N=Cc1ccsc1	130
COC(=O)[C@H](Cc1c[nH]cn1)NC(=O)C(CCCCc1ccccc1)Cc1cccc2ccccc12 (some centres undefined)	45 to 47
COc1nc(NC(=O)NS(=O)(=O)c2cscc2C)nc(OC)n1	154 to 156
O=C(Cl)Oc1cccc(NC(=O)C2CC2)c1	94
CCC(=O)OC1(C(=O)CCl)C(C)CC2C3CCC4CC(=O)CCC4(C)C3(Cl)C(Cl)CC21C (centres undefined)	164
Cc1nc(O)c2c(n1)N(c1c(C)cc(Br)cc1C)C(=O)C2C (centres undefined)	271 to 273
CCOC(=O)c1cnc(-c2cc3cccc(NS(=O)(=O)c4cccs4)c3n2COC)s1	133 to 134

Compound	melting point [°C]
CCNC(=O)C(C)(C)COc1cccc2nc(C)c(C(=O)O)c(N)c12	168 to 170
CC(C)Oc1ccc(-c2cncc(OC3SCC(O)C(O)C3O)c2)cc1 (centres undefined)	158
C=Cc1nc(C#N)c(C#N)[nH]1	168 to 170
COc1ccc(-c2cc(=O)[nH]nc2C)cc1	255 to 256
Cc1oc(-c2ccc(C(F)(F)F)cc2)nc1-c1ccc2c(Br)c(OC(Cc3ccccc3)C(=O)O)ccc2c1 (centres undefined)	195 to 197
COc1cc(OC)c2cc(-c3ccccc3)c(=O)[nH]c2c1	257 to 258
CCO[C@@H](Cc1ccc2c(ccn2Cc2nc(-c3ccccc3OC)oc2C)c1)C(=O)O	59 to 60
CC1(C)CCC(C)(C)c2cc(CC#Cc3ccc(C(=O)Nc4ccc(O)cc4)cc3)ccc21	159 to 160
O=C1CN(c2ccccc2)C(=O)N1CCBr	146 to 147
OC(COc1cccc2[nH]ccc12)CN1CCC(c2c[nH]c3cc(F)ccc23)CC1 (single isomer, unassigned; (+))	94 to 97
COCCOc1ccc(CCNC(=O)C=Cc2ccccc2)cc1S(N)(=O)=O	133
CC(=O)NC(=O)N1CCSC1c1ccccc1OCCN1CCN(c2cccc(F)c2)CC1 (centres undefined)	142 to 143
CCOC1=Cc2ccccc2N(C)c2ccc(Br)cc21	131
CN(C)C(=O)n1cc2c(n1)-c1ccc(Cl)cc1C(c1ccccc1Cl)=NC2	175 to 176
CC(C)COC(=O)[C@H](CC(=O)OCc1ccccc1)NC(=O)CCCCNC(=O)OC(C)(C)C	64 to 66
COC(C(=O)O)C(=O)Oc1cccc(-c2cn3c(n2)sc2ccccc23)c1 (centres undefined)	110 to 113
O=S1(=O)NCCNc2ccc(Oc3ccccc3)cc21	146 to 149
COc1cc(OC)c(OC)cc1CN1CCc2cc(O)ccc2C1	188 to 191
Clc1ccc(-c2nc(Cl)c3ccccc3n2)cc1	166 to 167
COc1ccc(-c2cccc(COCCc3cccc(NS(=O)(=O)C(F)(F)F)c3)c2)cc1	88 to 90
COc1ccc(-n2nc(Sc3cc(C)cc(C)c3)c(C)c(C#N)c2=O)cc1	175 to 177
CC1(C)CCSc2c(CC#Cc3ccc(C=O)cc3)cccc21	55 to 63
C=Cc1ccc(OC(C)C)c(OCCN2C(=O)c3ccccc3C2=O)c1	78
CC(C)C(=O)N[C@@H](CSC(=O)C(C)(C)C)C(=O)NCCSC(=O)C(C)(C)C	106 to 108
FC(F)(F)c1cccc(-c2cc(C(F)(F)F)n3ncc(-c4cccnc4)c3n2)c1	171

Compound	melting point [°C]
CC(=O)C1=C(O)c2c(c3ccccc3n2C)S(=O)(=O)N1	210 to 211
CNC(=O)Nc1ccc(OCCCN2CCN(c3ccccc3)CC2)c(OC)c1	167 to 169
COc1ccccc1N(CN1CCOC1=O)C(=O)CCl	109 to 110
O=C1NCCc2[nH]c3c(OCc4ccccc4)cccc3c21	182 to 185
CC(C)(C)OC(=O)N1CCC(n2nnc(-c3cnc(-c4ccccc4)nc3)n2)CC1	178 to 180
N#Cc1ccc(-c2csc(NCCO)n2)cc1	80 to 82
CC(=O)N1CCC2(CC1)CC(=O)c1c(O)cccc1O2	114 to 116
CCC(=O)N1c2cscc2C(=O)N(C)c2ccccc21	202 to 203
CCOC(=O)c1ccc(OCCCCCCCCCCCOc2ccc(Cl)cc2)cc1	94 to 95
C=CCOC(=O)c1ccc(NC(=O)C(C(N)=O)c2ccc3c(c2)C(C)(C)CCC3(C)C)cc1 (centres undefined)	210 to 211
N#Cc1ccc(CCc2ccc(OCc3ccc4ccccc4n3)cc2)cc1	156 to 158
N#CCCNN=Cc1ccc(C=NNCCC#N)cc1	111 to 113
CCCn1c(=O)n2cnnc2c2c1ncn2C	218
COC(=O)CCCc1ccc(C(=O)Cc2ccccc2)cc1	54 to 54.5
COC(=O)c1ccc(NC(=O)N(C)C)cc1	169 to 170
COC(=O)CCC(=O)c1ccc(-c2ccc(C#N)cc2)cc1	149 to 151
CCOC(=O)c1cnc2c(F)c(Br)c(F)cc2c1O	285
CCC(=O)Oc1ccc(/C=C/C=C/C(=O)NCCN2CCC(c3c[nH]c4ccccc34)CC2)cc1OC	157 to 158
CCOC(=O)C(NC(C)=O)C(=O)CCCCc1ccccc1 (centres undefined)	54 to 55
O=C1CCc2c(ccc3cc(O)ccc23)O1	189 to 199
COC(=O)C1=C(C)NC(C)=C(C(=O)OCC(O)CO)C1c1cccc([N+](=O)[O-])c1 (centres undefined)	49 to 53
Cn1c(=O)oc2cc3c(cc21)OCC31C(=O)N(Cc2ccc(C(F)(F)F)o2)c2ccccc21 (centres undefined)	198 to 199
CC(C#CC1=C(C)C(O)C(O)C1(C)C)=CCO (centres undefined)	121 to 122
Cn1cc(C(=O)Nc2ccccc2OC(F)(F)C(F)F)c(C(F)F)n1	117 to 119
CCOC(=O)c1ccc(-c2ccc(OCCCNC)c(-c3ccc4c(c3)C(C)(C)CCC4(C)C)c2)cc1	141

Compound	melting point [°C]
Cn1c(Sc2ccc(C(=O)O)c(Cl)c2)n[nH]c1=O	236
CC(C)c1ccc(S(=O)(=O)NC(=O)C(Oc2cc(OCc3ccsc3)ccc2C#N)c2ccccc2)cc1 (racemic)	187 to 189
CC(C)(C)OC(=O)N1CCc2c(n(CCO)c3c(Cl)ccc(Cl)c23)CC1	156 to 158
CN(C)c1ccc2c(c1)nc(/C=C/c1ccccc1)n2-c1ccccn1	170 to 171
Cc1cccc(C)c1CCOCCCCCCNCc1c(CO)ccc(O)c1CO	83 to 86
N#Cc1cccc(OC2SCC(O)C(O)C2O)c1 (centres undefined)	130 to 135
COc1ccc(NC(=O)C2=C(O)c3ccccc3S(=O)(=O)N2C)ccc1=O	215 to 218
N#Cc1ccc(O)c(Cc2cc(F)cc(Cc3cc(C#N)ccc3O)c2O)c1	222
O=C(O)CCCCN(Cc1ccccc1)Cc1ccccc1	202 to 205
CCCc1nc2c(N)nc3cc(OCCNC(=O)OC(C)(C)C)ccc3c2s1	136 to 139
OC1CC(O)C2CC1NN2 (centres undefined)	203 to 205
CCOC(=O)c1oc2c([N+](=O)[O-])c(O)ccc2c1C	186 to 188
COc1cc2c(cc1OCC(=O)O)C1Cc3c(Cl)cc(OC)c(OCC(=O)O)c3CN1CC2 (centres undefined)	202 to 204
Cn1c(C(F)(F)F)nc2c(OCc3ccccc3)cc(Br)cc21	141 to 142
CC(C)(C#N)Cc1ccc(CC(C)(C)C#N)cc1	192 to 194
O=C(Nc1ccc(-c2cnc(-c3ccc(NC(=O)c4cccnc4)cc3)[nH]2)cc1)c1cccnc1	317 to 319
Clc1ccc(SC(Cn2ccnc2)C23CC4CC(CC(C4)C2)C3)cc1Cl (centres undefined)	179 to 181
O=c1c2cccc(O)c2oc2cc(O)cc(O)c12	211 to 213
O=C1Nc2cc(Cl)ccc2C1c1ncnc2c1cnn2C1CCCC1 (centres undefined)	288 to 291
O=C(C=Cc1cccc(-c2ccccc2)c1)Nc1ccc(CN2CCCCC2)cc1	159 to 160
CCCc1c(C(=O)C(C)C)c2ccc(C(N)=O)cc2n1Cc1c(Cl)cccc1Cl	208 to 209
Cc1cccc(C)c1NCC(=O)N1CCCO1	82 to 83
CCn1cc(C(=O)O)c(=O)c2cc(F)c(N3CCC(CN(C)C)C3)c(F)c21 (centres undefined)	204 to 206
Cc1ccccc1C(=O)Nc1ccc(C(=O)N2Cc3ccnn3Cc3ccccc32)c(Cl)c1	241 to 244
